“Also recorded” adds a separate entry of the source. Where two headings read alike, the source gives them in different places.
Key:
[1] = in vivo; cited from earlier work
[2] = tested on: acute migraine episodes; assay type: in vivo, human
Source text: (§1) The purpose of the experiments described in this Example was to determine the efficacy of dorsonasal administration of ropivacaine for inhibition of acute migraine episodes. Ropivacaine was dorsonasally administered to individual patients experiencing head pain, other symptoms, or both, believed to be associated with an acute migraine episode. Patients assessed head pain prior to and after ropivacaine administration.
Ropivacaine-HCl (NAROPINT™, Astra USA, Westborough, Mass.) was used as the commercially-available 0.75% (w/v) solution, and was obtained in 30 milliliter, sterile injectable vials.
Three methods were used to achieve dorsonasal delivery of ropivacaine to individual patients. Ropivacaine was administered to a first group of patients by an intranasal drip method. Ropivacaine was administered to a second group using cotton swabs, the absorbent portions of which were saturated with the ropivacaine solution. Ropivacaine was administered to patients in a third group by spraying the ropivacaine solution into each nostril, using either a squeeze-type spray bottle or a metered-dose spray bottle.
The intranasal drip method used to administer ropivacaine to the first group of patients was a based on the method described by Barre (1982, Headache 22:69-73), except that the ropivacaine solution was used in place of the solution used by Bane. Approximately 0.75 milliliter to approximately 1.0 milliliter of the ropivacaine solution was administered by way of each of the nostrils of each patient.
The cotton swab method used to administer ropivacaine to the second group of patients comprised gently inserting cotton swabs, sequentially and bilaterally, into the nostrils of patients and urging the swabs dorsally until their absorbent portions contacted portions of nasal epithelium located dorsal to the middle conchae. Each swab was left in place for approximately one minute, and was then withdrawn. Approximately 0.5 milliliter of the ropivacaine solution was delivered to each nostril using this method.
Patients in a third group were administered ropivacaine by spraying less than about 0.5 milliliter of the ropivacaine solution into each of the patient's nostrils using either a sterile squeeze bottle or a sterile metered-dose spray bottle of known design. The design and operation of each of these spray bottles are well known in the art.
Prior to administration of ropivacaine, each patient was placed in a supine position with the patient's head hyperextended approximately 45 degrees and rotated approximately 30 degrees to the right side. In this position, an imaginary line extending from the region of the nasal epithelium overlying the SPG of the patient through the patient's left nostril was approximately vertical. Ropivacaine was then administered to the left nostril of the patient as described for each of the three groups of patients. Ropivacaine was administered to each patient's right nostril after rotating the patient's head approximately 30 degrees to the left. Ropivacaine was administered to both nostrils of each patient to prevent cases of unilateral migraine from developing into contralateral migraine.
Prior to ropivacaine administration, each patient rated perceived headache pain according to a standard pain scale of the type used in the art. Patients were asked to rank the severity of pain which they were experiencing on a scale from 0 (no pain) to 10 (worst pain imaginable). This ten-point pain rating scale is analogous to, but has more gradations than, the four-point rating system used by the International Headache Society (IHS; Headache Classification Committee of the International Headache Society, 1988, Cephalalgia 8(Suppl. 7):19-28). Ropivacaine was administered to one nostril of each patient, and then to the other. The time required to administer ropivacaine to both nostrils of each patient was approximately three minutes. […]

[3] = tested on: migraine; settings: lidocaine, Intranasal Spray; 10-point pain scale
[4] = tested on: nerve structure; settings: intranasally administered; cited from earlier work
[5] = tested on: headache; settings: 10% (w/v) lidocaine solution sprayed through dorsonasal cannula; three patients
Experimental: The solution was administered by spraying it through a plastic cannula which had been bent to conform its shape such that the outlet of the cannula was located dorsonasally. The cannula was inserted into each nostril, and the solution was sprayed through the cannula, exiting therefrom through the outlet.

[6] = tested on: migraine; settings: intranasal spray of 1-2 milliliters 4% (w/v) lidocaine; within fifteen minutes; cited from earlier work
[7] = tested on: tinnitus; assay: Inhibition of tinnitus by dorsonasal administration of ropivacaine (Example 4); assay type: in vivo, human; settings: patient 4-2
Source text: Ropivacaine was dorsonasally administered to each of three patients using the nasal spray method or the nasal drops method described herein.

[8] = cited from earlier work
[9] = tested on: headache; assay: Dorsonasal headache treatment using bupivacaine (Example 8); assay type: in vivo, human; settings: two patients
Experimental: Two different headache patients were treated by delivering about 0.25-0.75 milliliters of a 0.75% (w/v) bupivacaine solution to each nostril of the patients. The solution was administered by passing the solution along a plastic cannula having an absorbent portion affixed at the distal (i.e., outlet) portion thereof. This cannula had also been bent to conform its shape such that the outlet of the cannula and the affixed absorbent portion were located dorsonasally. The solution was passed along the cannula, and the cannula was left in place for several minutes.

[10] = tested on: muscular headache; assay: Dorsonasal administration of bupivacaine for muscular headache episodes (Example 5); assay type: in vivo, human; settings: for Pain intensity after administration: 0.75% bupivacaine
Source text: The purpose of the experiments described in this Example was to determine the efficacy of dorsonasal administration of bupivacaine for inhibition of muscular headaches. Bupivacaine was dorsonasally administered to four individual patients experiencing head pain and other symptoms associated with a severe muscular headache episode. All of the patients had areas of sustained craniocervical muscle contraction and tenderness which was absent in all patients following headache resolution. Patients assessed head pain prior to and after bupivacaine administration. The four patients and their responses were as follows.

[11] = tested on: acute migraine episodes; assay: Dorsonasal administration of bupivacaine for inhibition of acute migraine episodes (Example 2); assay type: in vivo, human
Source text: as §1, with “bupivacaine” for “ropivacaine”, “Bupivacaine” for “Ropivacaine”
The materials and methods used in the procedures performed in this Example were substantially the same as the materials and methods described in Example 1, with the exception that the composition which was administered to the patients described in this example comprised a 0.75% (w/v) solution of bupivacaine.
The organization of and the abbreviations used in Table 6 are analogous to those used in Table 1, with the exception that “B” in the treatment column refers to bupivacaine.

[12] = n-heptane/buffer biphasic system; cited from earlier work
[13] = lidocaine 2.0% (w/v), 1 cc Drops, individual patients, pain scale 0-10
[14] = bupivacaine 0.75% (w/v), 2 Sprays, individual patients, pain scale 0-10
[15] = bupivacaine 0.75% (w/v), 2 cc Drops, individual patient, pain scale 0-10

In the case of `CCCN1CCCC[C@@H]1C(=O)Nc1c(C)cccc1C` (single isomer, unassigned) [R(dextro) enantiomer of ropivacaine], the Cardiotoxicity [1] is listed as “Cardiotoxicity is a side effect”.
For `CCN(CC)CC(=O)Nc1c(C)cccc1C` [Lidocaine, lidocaine], the “Oropharyngeal numbness” value ([2]; human, in vivo, 15 min) was 6, the “Pain 5 min post-treatment” value [2, 13] was “Pain 5 min post-treatment: 2” and the “Pain 30 min post-treatment” value [2, 13] was “Pain 30 min post-treatment: 6”. The “Pain 45 min post-treatment” value [2, 13] was “Pain 45 min post-treatment: 6^B”, the “Rate of Pain Relief (migraine pain reduction per minute per gram of drug)” value [3] was 10.0 and the Duration of action [4] was “shorter than about one hour”. The “Relief from headache symptoms” value [5] was “All three patients experienced rapid relief” and the “Patients with decreased head pain / effectiveness to reduce migraine pain” value [6] was 55%.
In the case of `Oc1ccc2c(c1)[C@@]13CCCC[C@@]1(O)[C@@H](C2)N(CC1CCC1)CC3` [butorphanol], the “Effect of intranasal butorphanol on chronic non-headache pain following intranasal ropivacaine” value [7] is reported as “faster onset and a far more powerful effect”.
In the case of `CCCCN1CCCCC1C(=O)Nc1c(C)cccc1C` (stereo not shown) [Bupivacaine, bupivacaine], the “Proportion bound to protein in vivo” value [8] is given as “Approximately 95%”, the “Relief from headache symptoms” value ([9]; 0.75% (w/v) bupivacaine solution via cannula with absorbent portion) is given as “Both of these patients experienced rapid relief” and the “Rebound of headache symptoms” value ([9]; 0.75% (w/v) bupivacaine solution, follow-up about one day) is given as “neither patient experienced rebound of headache symptoms within about one day”. The “Pain intensity after administration” value ([10]; Patient 1, from about 8, within about 15 minutes, tension headache) was 0, the “Pain intensity after administration” value ([10]; Patient 2, from about 7, within about 7 minutes, muscle contraction headache) was 0 and the “Muscle knots after treatment” value ([10]; Patient 4, 5 minutes after treatment) was “muscle knots were no longer perceived”. For the same compound, the “Pain intensity after administration” value ([10]; Patients 3 (from about 5) and 4 (from about 7), within about 5 minutes, tension headache) was “about 1”, the “Pain 5 min post-treatment” value ([11]; bupivacaine 0.75% (w/v), 2 Sprays, individual patients (first or 2nd treatment), pain scale 0-10, listed as B) was “Pain 5 min post-2nd-treatment: 0” and the “Rebound / recurrence at follow-up” value ([11]; bupivacaine 0.75% (w/v), 2 Sprays, individual patients, listed as B) was “Recurrence 4 hours post-treatmt; also recorded: No rebound up to 24 hours”. The “Pain 3 min post-treatment” value [11, 14] was “Pain 3 min post-treatment: 0”, the “Pain 10 min post-treatment” value [11, 14] was “Pain 10 min post-treatment: 0” and the “Associated symptom after treatment” value ([11]; bupivacaine 0.75% (w/v), 2 cc Drops, P2#3) was “Head pressure persisted”. For the same compound, the “Pain 5 min post-treatment” value [11, 15] was “Pain 5 min post-treatment: 1-2”, the “Pain 10 min post-treatment” value [11, 15] was “Pain 10 min post-treatment: 0” and the Rebound at follow-up ([11]; bupivacaine 0.75% (w/v), 2 cc Drops, individual patients) was “No rebound up to 24 hours”. The Rebound at follow-up ([11]; bupivacaine 0.75% (w/v), Sat'd Cotton Swab, individual patient) was “No rebound up to 24 hours”, the “Pain 5 min post-treatment” value ([11]; bupivacaine 0.75% (w/v), Sat'd Cotton Swab, individual patient, pain scale 0-10) was “Pain 5 min post-treatment: 0” and the “Time to arrest of migraine” value ([11]; bupivacaine 0.75% (w/v), all seven patients) was at most 10 min. For the same compound, the “Rebound of migraine within twenty-four hours of treatment” value ([11]; bupivacaine 0.75% (w/v), seven patients) was “Six of the seven patients treated using bupivacaine experienced no rebound”, the “Efficacy for relief of headache pain associated with migraine” value ([11]; preliminary data) was “efficacy similar to that of ropivacaine” and the “Partition coefficient relative to lidocaine” value [12] was “about 10 times”.

Source: patent US9381349B2, “Apparatus for treating cerebral neurovascular disorders including headaches by neural stimulation” (priority 1997, dated 2016)
